In one experiment the test system is retina (GCL, IPL, RGC). As to the kind of experiment: acute IOP elevation (acute angle closure glaucoma model), systemic (i.p.) C2l. It counts as in vivo, mice.
Experiment [1] deals with cortical neuronal cultures (14 DIV). As to the kind of experiment: neuronal death mediated by extrasynaptic NMDA receptor activation. Particulars: dose-dependent from 200 nM to 5 μM. It counts as cell-based. As to the method: Results are expressed as percent of neurons positively stained with the Hoechst reagent and are means±S.E.M. of 3-4 experiments (*p<0.01, Student's t-test).
A selective calpain-2 inhibitor blocks neuronal death mediated by extrasynaptic NMDA receptor activation. Cortical neuronal cultures (14 DIV) were treated to induce selective activation of extrasynaptic NMDA receptors, which results in neuronal cell death.

For a further experiment, the target named is T1, calpain-2 (Homo sapiens, UniProt P17655).
T1 sequence (P17655 1-700): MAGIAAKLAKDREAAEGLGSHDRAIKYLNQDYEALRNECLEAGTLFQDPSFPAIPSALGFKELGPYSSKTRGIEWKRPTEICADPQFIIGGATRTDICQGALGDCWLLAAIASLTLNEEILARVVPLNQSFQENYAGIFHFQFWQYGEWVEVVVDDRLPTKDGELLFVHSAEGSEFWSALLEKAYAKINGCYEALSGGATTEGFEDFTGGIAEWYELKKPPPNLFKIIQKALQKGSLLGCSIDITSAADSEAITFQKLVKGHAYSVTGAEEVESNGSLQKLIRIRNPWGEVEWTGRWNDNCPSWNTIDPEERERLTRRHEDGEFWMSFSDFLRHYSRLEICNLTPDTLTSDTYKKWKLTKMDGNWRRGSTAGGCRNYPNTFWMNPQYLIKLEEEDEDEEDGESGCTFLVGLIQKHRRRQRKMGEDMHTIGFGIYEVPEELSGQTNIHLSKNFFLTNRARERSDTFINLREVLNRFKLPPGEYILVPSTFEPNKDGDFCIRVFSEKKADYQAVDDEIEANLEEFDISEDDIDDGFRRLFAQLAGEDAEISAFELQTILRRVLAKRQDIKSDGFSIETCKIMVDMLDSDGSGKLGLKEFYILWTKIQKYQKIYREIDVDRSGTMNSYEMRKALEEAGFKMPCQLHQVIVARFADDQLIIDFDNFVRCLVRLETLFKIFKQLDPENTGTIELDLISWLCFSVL
T1 sequence (P04632 1-268 partner): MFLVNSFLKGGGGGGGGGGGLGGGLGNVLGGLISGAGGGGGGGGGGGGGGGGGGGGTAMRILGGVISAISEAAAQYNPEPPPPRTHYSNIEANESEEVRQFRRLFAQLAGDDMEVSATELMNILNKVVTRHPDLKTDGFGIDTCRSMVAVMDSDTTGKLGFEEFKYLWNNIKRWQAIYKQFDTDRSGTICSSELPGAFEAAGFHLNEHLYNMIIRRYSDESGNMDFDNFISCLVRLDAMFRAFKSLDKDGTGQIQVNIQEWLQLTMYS
Particulars: Li et al, 1996; read-out: Ki for calpain-2 (m-calpain), literature; cited from earlier work.

In another experiment the test system is learning and memory. As to the kind of experiment: fear conditioning protocol. Particulars: various doses i.p. 30 min before training. It counts as in vivo, mice. The procedure: (§1) FIG. 7A: Effects of an calpain-2 selective inhibitor on fear conditioning. […] Various doses of the compound of Formula I (m-CalpI in the drawing) were injected i.p. 30 min before training to learn the association between a context or a tone with a painful stimulus. Animals were tested 24 h later for their fear responses to the context, and memory strength was quantified by the amount of time mice freeze (their biological response to fear). The ratio between the doses producing enhancement and decrease matches the ratio between the Kis to inhibit calpain-2 and calpain-1. […] Results are means±S.E.M. of 8-10 experiments. *p<0.05 (ANOVA followed by Bonferroni post-test).
as §1, with “7B:” for “7A:”, “1 (m-CalpI)” for “I (m-CalpI in the drawing)”, “48” for “24”, “tone,” for “context,”
Formula 1 Enhances Memory. […] In this protocol, mice were trained to learn the association between a context or a tone with a painful stimulus. Various doses of the compound of Formula 1 (mCalp-I) were injected i.p. 30 min before training. Animals were tested 24 h later in the context (FIG. 7A) and 48 h later with the tone (FIG. 7B). When tested 24 h or 48 h later for their fear responses to either the context or the tone, memory strength was quantified by the amount of time mice freeze (their biological response to fear). The ratio between the doses producing enhancement and decrease matches the ratio between the Kis to inhibit calpain-2 and calpain-1. […] Results are means±S.E.M. of 8-10 experiments. *p<0.05 (ANOVA followed by Bonferroni post-test).

Where [2] appears, read: injected 2 h after IOP elevation, WT mice, n=5.

Take `CCC(NC(=O)C(CC(C)C)NC(=O)OCc1ccccc1)C(=O)C(=O)NCc1cc(OC)cc(OC)c1` (racemic) [Formula 1, Z-Leu-Abu-CONH—CH2-C6H3 (3, 5-(OMe)2)]: the “survival rate of RGC versus vehicle” value with retina (GCL, IPL, RGC) (injected 2 h after IOP elevation) was “significantly improved”. In the experiment on retina (GCL, IPL, RGC) (setting [2]), the “RGC counts (brn-3a), IOP-elevated eye” value was 37.1±2.5 cells/mm and the “RGC counts (brn-3a), sham eye” value is recorded as 45.2±5.0 cells/mm. The “changes in PHLPP1 and pAkt after IOP elevation” value in the experiment with retina (GCL, IPL, RGC) (retina 3 h after IOP elevation, 0.3 mg/kg at 2 h) is reported as “present in C2l-injected WT mice”. Further, the “neuronal cell death associated with extrasynaptic NMDA receptor activation” value in experiment [1] is “reduced the neuronal cell death”. The “neuronal cell death associated with extrasynaptic NMDA receptor activation” value in experiment [1] (listed as Formula I) is reported as “reduced neuronal cell death”. In addition, the Ki at calpain-2 is 22 nM. Moreover, the “effect on learning and memory in the fear conditioning protocol” value in the experiment with learning and memory (context 24 h, tone 48 h) is “biphasic effect”. The “effect on learning and memory, fear response to the context” value in the experiment with learning and memory (tested 24 h later) is on record as “biphasic effect”. Besides, the “effect on learning and memory, fear response to the tone” value with learning and memory (tested 48 h later) is recorded as “biphasic effect”.

As usually defined, the Ki is a measure of affinity in units of concentration, obtained from inhibition or displacement.

Values taken from patent US20190030114A1, “ISOFORM-SPECIFIC CALPAIN INHIBITORS, METHODS OF IDENTIFICATION, AND USES THEREOF” (WESTERN UNIVERSITY OF HEALTH SCIENCES, priority 2014, published 2019).
